According to patent US8372967B2, “Compounds and methods for modulating expression of GCCR” (Isis Pharmaceuticals, Inc., priority 2006, dated 2013):
Strand notation (5' to 3'): a small letter for the sugar, then the base; units joined by * are phosphorothioate-linked, units joined directly phosphodiester-linked; [ ] holds rarer units or linkages, { } end groups; capitals alone tell only the bases. e = 2'-O-(2-methoxyethyl) (MOE); [5mC] = 5-methylcytosine; d = 2'-deoxy (DNA)

Columns and labels:
PTP1B mRNA = test: Dose response for human PTP1B in HuVEC cells, PPS 198 and PPS 3000 (Tables 86, 87); assay type: cell-based
Method: Human vascular endothelial (HuVEC) cells were plated at a density of 5000 cells per well and treated as described herein with nM concentrations of short antisense compound as indicated in Table 86. After the treatment period, RNA was isolated from the cells and PTP1B mRNA levels were measured by quantitative real-time PCR, as described herein. PTP1B mRNA levels were adjusted according to total RNA content as measured by RIBOGREEN®. Two different human PTP1B primer probe sets were used to measure mRNA levels. Results with Primer Probe Set (PPS) 198 are shown in Table 86, and results with Primer Probe Set (PPS) 3000 are shown in Table 87. Results are presented as percent inhibition of PTP1B mRNA expression relative to untreated control cells.

PCSK9 mRNA = assay type: cell-based, human; conditions: Hep3B cells, 100 nM, relative to untreated control cells; for % Inhib: 0 = no reduction observed
Method: When cells reached appropriate confluency, they were treated with oligonucleotide using LIPOFECTIN® as described. […] Cells were treated and data were obtained in duplicate or triplicate. […] Cells were harvested 16-24 hours after oligonucleotide treatment.
Prior to quantitative PCR analysis, primer-probe sets specific to the target gene being measured were evaluated for their ability to be “multiplexed” with a GAPDH amplification reaction. After isolation the RNA is subjected to sequential reverse transcriptase (RT) reaction and real-time PCR, both of which are performed in the same well. RT and PCR reagents were obtained from Invitrogen Life Technologies (Carlsbad, Calif.). […] The RT reaction was carried out by incubation for 30 minutes at 48° C. Following a 10 minute incubation at 95° C. to activate the PLATIN 9M® Taq, 40 cycles of a two-step PCR protocol were carried out: 95° C. for 15 seconds (denaturation) followed by 60° C. for 1.5 minutes (annealing/extension).
170 μL of RiboGreen® working reagent (RiboGreen® reagent diluted 1:350 in 10 mM Tris-HCl, 1 mM EDTA, pH 7.5) was pipetted into a 96-well plate containing 30 μL purified cellular RNA. The plate was read in a CytoFluor® 4000 (PE Applied Biosystems) with excitation at 485 nm and emission at 530 nm.
Short antisense compounds targeted to a PCSK9 nucleic acid were tested for their effects on PCSK9 mRNA in vitro. The Isis No, gapmer motif and SEQ ID NO of each short antisense compound are shown again in Table 75. Cultured Hep3B cells were treated with 100 nM of short antisense compound. 5-10-5 MOE gapmers targeted to a PCSK9 nucleic acid were used as positive controls. After the treatment period, RNA was isolated from the cells and PCSK9 mRNA levels were measured by quantitative real-time PCR, as described herein. PCSK9 mRNA levels were adjusted according to total RNA content as measured by RIBOGREEN®. Results are presented in Table 75 as percent inhibition of PCSK9 (% Inhib), relative to untreated control cells.

398105 (eT*eG*d[5mC]*dA*d[5mC]*dA*dG*dG*d[5mC]*dA*dG*dG*eT*eT) [compound 398105]
% Inhibition (PTP1B mRNA; PPS 198, 1.11 nM): 0% | % Inhibition (PTP1B mRNA; PPS 198, 3.33 nM): 25% | % Inhibition (PTP1B mRNA; PPS 198, 10.0 nM): 79% | % Inhibition (PTP1B mRNA; PPS 198, 30.0 nM): 90% | % Inhibition (PTP1B mRNA; PPS 3000, 1.11 nM): 0% | % Inhibition (PTP1B mRNA; PPS 3000, 3.33 nM): 35% | % Inhibition (PTP1B mRNA; PPS 3000, 10.0 nM): 79% | % Inhibition (PTP1B mRNA; PPS 3000, 30.0 nM): 93%

398112 (e[5mC]*eA*dG*d[5mC]*d[5mC]*dT*dG*dG*d[5mC]*dA*d[5mC]*d[5mC]*eT*eA) [compound 398112]
% Inhibition (PTP1B mRNA; PPS 198, 1.11 nM): 1% | % Inhibition (PTP1B mRNA; PPS 198, 3.33 nM): 10% | % Inhibition (PTP1B mRNA; PPS 198, 10.0 nM): 73% | % Inhibition (PTP1B mRNA; PPS 198, 30.0 nM): 93% | % Inhibition (PTP1B mRNA; PPS 3000, 1.11 nM): 0% | % Inhibition (PTP1B mRNA; PPS 3000, 3.33 nM): 26% | % Inhibition (PTP1B mRNA; PPS 3000, 10.0 nM): 77% | % Inhibition (PTP1B mRNA; PPS 3000, 30.0 nM): 94%

398120 (eG*eT*dT*d[5mC]*dA*dA*dG*d[5mC]*dG*dG*d[5mC]*d[5mC]*eT*eA) [compound 398120]
% Inhibition (PTP1B mRNA; PPS 198, 1.11 nM): 0% | % Inhibition (PTP1B mRNA; PPS 198, 3.33 nM): 31% | % Inhibition (PTP1B mRNA; PPS 198, 10.0 nM): 80% | % Inhibition (PTP1B mRNA; PPS 198, 30.0 nM): 96% | % Inhibition (PTP1B mRNA; PPS 3000, 1.11 nM): 0% | % Inhibition (PTP1B mRNA; PPS 3000, 3.33 nM): 35% | % Inhibition (PTP1B mRNA; PPS 3000, 10.0 nM): 79% | % Inhibition (PTP1B mRNA; PPS 3000, 30.0 nM): 93%

398173 (e[5mC]*dA*dG*d[5mC]*d[5mC]*dT*dG*dG*dG*d[5mC]*dA*e[5mC]) [compound 398173]
% Inhibition (PTP1B mRNA; PPS 198, 1.11 nM): 0% | % Inhibition (PTP1B mRNA; PPS 198, 3.33 nM): 4% | % Inhibition (PTP1B mRNA; PPS 198, 10.0 nM): 80% | % Inhibition (PTP1B mRNA; PPS 198, 30.0 nM): 97% | % Inhibition (PTP1B mRNA; PPS 3000, 1.11 nM): 0% | % Inhibition (PTP1B mRNA; PPS 3000, 3.33 nM): 18% | % Inhibition (PTP1B mRNA; PPS 3000, 10.0 nM): 80% | % Inhibition (PTP1B mRNA; PPS 3000, 30.0 nM): 90%

399096 (eT*eG*d[5mC]*dT*d[5mC]*dG*dA*dA*d[5mC]*dT*d[5mC]*d[5mC]*eT*eT; antisense) [compound 399096]
% Inhibition (PTP1B mRNA; PPS 198, 1.11 nM): 3% | % Inhibition (PTP1B mRNA; PPS 198, 3.33 nM): 30% | % Inhibition (PTP1B mRNA; PPS 198, 10.0 nM): 78% | % Inhibition (PTP1B mRNA; PPS 198, 30.0 nM): 96% | % Inhibition (PTP1B mRNA; PPS 3000, 1.11 nM): 0% | % Inhibition (PTP1B mRNA; PPS 3000, 3.33 nM): 23% | % Inhibition (PTP1B mRNA; PPS 3000, 10.0 nM): 75% | % Inhibition (PTP1B mRNA; PPS 3000, 30.0 nM): 94%

399102 (eG*eA*dA*dG*dT*d[5mC]*dA*d[5mC]*dT*dG*dG*d[5mC]*eT*eT; antisense) [compound 399102]
% Inhibition (PTP1B mRNA; PPS 198, 1.11 nM): 0% | % Inhibition (PTP1B mRNA; PPS 198, 3.33 nM): 15% | % Inhibition (PTP1B mRNA; PPS 198, 10.0 nM): 62% | % Inhibition (PTP1B mRNA; PPS 198, 30.0 nM): 88% | % Inhibition (PTP1B mRNA; PPS 3000, 1.11 nM): 0% | % Inhibition (PTP1B mRNA; PPS 3000, 3.33 nM): 9% | % Inhibition (PTP1B mRNA; PPS 3000, 10.0 nM): 60% | % Inhibition (PTP1B mRNA; PPS 3000, 30.0 nM): 87%

399113 (eG*eT*dT*dA*dG*dG*d[5mC]*dA*dA*dA*dG*dG*eG*e[5mC]; antisense) [compound 399113]
% Inhibition (PTP1B mRNA; PPS 198, 1.11 nM): 0% | % Inhibition (PTP1B mRNA; PPS 198, 3.33 nM): 31% | % Inhibition (PTP1B mRNA; PPS 198, 10.0 nM): 72% | % Inhibition (PTP1B mRNA; PPS 198, 30.0 nM): 90% | % Inhibition (PTP1B mRNA; PPS 3000, 1.11 nM): 0% | % Inhibition (PTP1B mRNA; PPS 3000, 3.33 nM): 9% | % Inhibition (PTP1B mRNA; PPS 3000, 10.0 nM): 65% | % Inhibition (PTP1B mRNA; PPS 3000, 30.0 nM): 90%

399132 (eG*eG*dG*d[5mC]*dT*dG*dA*dG*dT*dG*dA*d[5mC]*e[5mC]*e[5mC]; antisense) [compound 399132]
% Inhibition (PTP1B mRNA; PPS 198, 1.11 nM): 0% | % Inhibition (PTP1B mRNA; PPS 198, 3.33 nM): 32% | % Inhibition (PTP1B mRNA; PPS 198, 10.0 nM): 75% | % Inhibition (PTP1B mRNA; PPS 198, 30.0 nM): 95% | % Inhibition (PTP1B mRNA; PPS 3000, 1.11 nM): 0% | % Inhibition (PTP1B mRNA; PPS 3000, 3.33 nM): 26% | % Inhibition (PTP1B mRNA; PPS 3000, 10.0 nM): 76% | % Inhibition (PTP1B mRNA; PPS 3000, 30.0 nM): 91%

400367 (antisense eG*eG*d[5mC]*dT*d[5mC]*d[5mC]*dG*dG*d[5mC]*dA*dG*d[5mC]*eA*eG) [compound 400367]
% Inhibition Range (PCSK9 mRNA): 10-20% | % Inhib (PCSK9 mRNA): 12%

400368 (antisense e[5mC]*eG*dG*d[5mC]*dT*d[5mC]*d[5mC]*dG*dG*d[5mC]*dA*dG*e[5mC]*eA) [compound 400368]
% Inhibition Range (PCSK9 mRNA): 10-20% | % Inhib (PCSK9 mRNA): 11%

400369 (antisense e[5mC]*e[5mC]*dG*dG*d[5mC]*dT*d[5mC]*d[5mC]*dG*dG*d[5mC]*dA*eG*e[5mC]) [compound 400369]
% Inhib (PCSK9 mRNA): 0%

400370 (antisense eG*e[5mC]*d[5mC]*dG*dG*d[5mC]*dT*d[5mC]*d[5mC]*dG*dG*d[5mC]*eA*eG) [compound 400370]
% Inhibition Range (PCSK9 mRNA): 10-20% | % Inhib (PCSK9 mRNA): 13%

400371 (antisense eA*eG*dT*dT*dA*d[5mC]*dA*dA*dA*dA*dG*d[5mC]*eA*eA) [compound 400371]
% Inhib (PCSK9 mRNA): 0%
